In patent US20030203864A1, “Treatment of cancer” (priority 2002, published 2003):
Strand notation (5' to 3'): a small letter for the sugar, then the base; units joined by * are phosphorothioate-linked, units joined directly phosphodiester-linked; [ ] holds rarer units or linkages, { } end groups; capitals alone tell only the bases. [invdT] = inverted (3'-3') thymidine; d = 2'-deoxy (DNA)

Tests used:
[1] = system: Egr-1 protein; assay: Western blot of Egr-1 protein in endothelial cells; assay type: cell-based, bovine; conditions: for insulin-inducible Egr-1 protein synthesis: 0.8 μM oligonucleotide
Method: Antisense oligonucleotide delivery and Western blot analysis. Growth arrested cells in 100 mm dishes were incubated with the indicated oligonucleotides 24 h and 48 h after the initial change of medium. When oligonucleotide was added a second time, the cells were incubated with various concentrations of insulin and harvest 1 h subsequently. […] Lysates were resolved by electrophoresis on 8% denaturing SDS-polyacrylamide gels, transferred to PDVF nylon membranes (NEN-DuPont), blocked with skim milk powder, then incubated with polyclonal antibodies to Egr-1 (Santa Cruz Biotechnology, Inc) and monoclonal horseradish peroxidase-linked mouse anti-rabbit Ig secondary antibodies followed by chemiluminescent detection (NEN-DuPont).

[2] = system: bovine aortic endothelial cells; assay: 3H-thymidine incorporation into DNA, aortic endothelial cells; assay type: cell-based; conditions: for basal endothelial DNA synthesis: no added insulin, 0.25% serum; for insulin-inducible DNA synthesis: inhibitor added 2 h before insulin 500 nM, PD98059 10 and 30 μM, wortmannin 0.3 and 1 μM, SB202190 100 and 500 nM
Method: ^3H-Thymidine incorporation into DNA. Growth-arrested endothelial cells at 90% confluence in 96 well plates were incubated twice with the oligonucleotides prior to the addition of insulin. […] After 18 h of exposure to insulin, the cells were pulsed with 200,000 cpm/well of methyl-3H thymidine (NEN-DuPont) for 6 h.

[3] = system: bovine aortic endothelial cells; assay: In vitro injury (scrape) endothelial regrowth; assay type: cell-based; conditions: for endothelial regrowth stimulated by insulin after injury: 0.8 μM oligonucleotide
Method: In vitro injury. Growth-arrested cells at 90% confluence were incubated with antisense oligonucleotides and insulin at various concentrations as described above, then were scraped by drawing a sterile wooden toothpick across the monolayer (Khachigian et al., 1996). Following 48-72 h, the cells were fixed in 4% formalin, stained with hemotoxylin/eosin then photographed.

[4] = system: Primary rat aortic SMCs; assay: SMC proliferation assay (Coulter counter); assay type: cell-based
Method: Culture conditions and DNAzyme transfection. Primary rat aortic SMCs were obtained from Cell Applications, Inc., and grown in Waymouth's medium, pH 7.4, containing 10% fetal bovine serum (FBS), 50 μg/ml streptomycin and 50 IU/ml penicillin at 37° C. in a humidified atmosphere of 5% CO2 SMCs were used in experiments between passages 3-7. Pup rat SMCs (WKY12-22 (as described in Lernire et al, 1994, the entire contents of which are incorporated herein by reference)) were grown under similar conditions. […] After 18 h, the cells were washed with phosphate-buffered saline (PBS), pH 7.4 prior to transfection a second time in 5% FBS.
Assays of cell proliferation. Growth-quiescent SMCs in 96-well titer plates (Nunc-InterMed) were transfected with ED5 or ED5SCR as above, then exposed to 5% FBS at 37° C. for 72 h. The cells were rinsed with PBS, pH 7.4, trypsinized and the suspension was quantitated using an automated Coulter counter.

[5] = system: Egr-1; assay: Transient transfection CAT reporter assay (pEBS1^3foscat), Egr-1-dependent gene expression; assay type: cell-based, bovine; conditions: growth-arrested endothelial cells, 24 h; glucose 5 to 30 mM, insulin 100 nM, FGF-2 25 ng/ml
Method: Transient transfection analysis and, CAT assay. The endothelial cells were grown to 60-70% confluence in 100 mm. dishes and transiently transfected with 10 μg of the indicated chloramphenicol acetyl transferase (CAT)-based promoter reporter construct using FuGENE6 (Roche). The cells were rendered growth-quiescent by incubation 48 h in 0.25% FBS, and stimulated with various agonists for 24 h prior to harvest and assessment of CAT activity. CAT activity was measured and normalized to the concentration of protein in the lysates (determined by Biorad Protein Assay) as previously described (Khachigian, L. M. and Chesterman, C. N. (1999), Circ. Res., 84:1258-1267).

[6] = system: Egr-1 mRNA; assay: RT-PCR and Northern blot of Egr-1 mRNA in endothelial cells; assay type: cell-based, bovine; conditions: growth-quiescent endothelial cells, within 1 h of agonist
Method: Northern blot analysis. Total RNA (12 μg/well) of growth-arrested endothelial cells (prepared using TRIzol Reagent (Life Technologies) in accordance with the manufacturer's instructions) previously exposed to various agonists for 1 h was resolved by electrophoresis on denaturing 1% agarose-formialdehyde gels. Following transfer overnight to Hybond-N+ nylon membranes (Amersham), the blots were hybridized with ^32P-labeled Egr-1 cDNA prepared using the Nick Translation Kit overnight (Roche). The membranes were washed and radioactivity visualized by autoradiography as previously described (Khachigian et al., 1995).
RT-PCR. Reverse transcription was performed with 8 μg of total RNA using M-MLV reverse transcriptase. Egr-1 cDNA was amplified (334 bp product (Delbridge, G. J. and Khachigian, L. M. (1997), Circ. Res., 81:282-288)) using Taq polymerase by heating for 1 min at 94° C., and cycling through 94° C. for 1 min, 94° C. for 1 min, 55° C. for 1 min, and 72° C. for 1 min. Following thirty cycles, a 5 min extension at 72° C. was carried out. Samples were electrophoresed on 1.5% agarose gel containing ethidium bromide and photographed under ultraviolet illumination. β-actin amplification (690 bp product) was performed essentially as above. The sequences of the primers were: Egr-1 forward primer (5′-GCA CCC AAC AGT GGC AAC-3′) (SEQ ID NO:18), Egr-1 reverse primer (5′-GGG ATC ATG GGA ACC TGG-3′) (SEQ ID NO: 19), β-actin forward primer (5′-TGACGGGGTCACCCACACTGTGCCCATCTA 3′) (SEQ ID NO:20), and β-actin reverse primer (5′-CTAGAAGCATTTGCGGTGGACGATGGAGGG-3′) (SEQ ID NO:21).

[7] = system: NGFI-A protein; assay: Western blot of NGFI-A protein in SMCs; assay type: cell-based, rat; conditions: 5% FBS 1 h
Method: Culture conditions and DNAzyme transfection. Primary rat aortic SMCs were obtained from Cell Applications, Inc., and grown in Waymouth's medium, pH 7.4, containing 10% fetal bovine serum (FBS), 50 μg/ml streptomycin and 50 IU/ml penicillin at 37° C. in a humidified atmosphere of 5% CO2 SMCs were used in experiments between passages 3-7. Pup rat SMCs (WKY12-22 (as described in Lernire et al, 1994, the entire contents of which are incorporated herein by reference)) were grown under similar conditions. Subconfluent (60-70%) SMCs were incubated in serum-free medium (SFM) for 6 h prior to DNAzyme (or antisense ODN, where indicated) transfection (0.1 μM) using Superfect in accordance with manufacturer's instructions (Qiagen). After 18 h, the cells were washed with phosphate-buffered saline (PBS), pH 7.4 prior to transfection a second time in 5% FBS.
Western blot analysis. Growth-quiescent SMCs in 100 mm plates (Nunc-InterMed) were transfected with ED5 or ED5SCR as above, and incubated with 5% FBS for 1 h. The cells were washed in cold PBS, pH 7.4, and extracted in 150 mM NaCl, 50 mM Tris-HCI, pH 7.5, […], 0.1% SDS, 1% Triton X-100, 5 mM EDTA, 1% trasylol, 10μ/ml leupeptin, 1% aprotinin and 2 mM PMSF. Twenty four μg protein samples were loaded onto 10% denaturing SDS-polyacrylamide gels and electroblotted onto PVDF nylon membranes (NEN-DuPont). […]

[8] = system: EGR-1; assay: Western blot of EGR-1 in HepG2 cells; assay type: cell-based, human
Sequence of EGR-1 (P18146 whole entry): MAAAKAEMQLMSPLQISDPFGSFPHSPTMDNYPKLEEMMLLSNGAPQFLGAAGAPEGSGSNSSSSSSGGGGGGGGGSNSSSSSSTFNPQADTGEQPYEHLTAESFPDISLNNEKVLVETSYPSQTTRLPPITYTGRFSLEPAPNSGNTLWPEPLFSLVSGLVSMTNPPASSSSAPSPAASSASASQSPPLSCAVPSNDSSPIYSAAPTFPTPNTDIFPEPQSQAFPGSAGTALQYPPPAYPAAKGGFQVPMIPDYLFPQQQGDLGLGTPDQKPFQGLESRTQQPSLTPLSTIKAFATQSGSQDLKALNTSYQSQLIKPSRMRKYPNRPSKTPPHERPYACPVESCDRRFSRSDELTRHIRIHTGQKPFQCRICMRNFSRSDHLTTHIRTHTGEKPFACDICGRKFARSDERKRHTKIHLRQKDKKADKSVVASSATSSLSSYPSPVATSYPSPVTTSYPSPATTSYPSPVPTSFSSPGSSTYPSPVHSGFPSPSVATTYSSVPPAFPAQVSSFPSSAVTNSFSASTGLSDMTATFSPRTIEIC

Question: Which “insulin-inducible Egr-1 protein synthesis” value [1] does the source give for “AS2: Phosphorothioate-linked antisense oligonucleotide to translational start site of Egr-1 mRNA, 5′-CsTsTsGsGsCsCsGsCsTsGsCsCsAsT-3′ (DNA dC*dT*dT*dG*dG*dC*dC*dG*dC*dT*dG*dC*dC*dA*dT)” here?
Answer: The value was “inhibited”.

Question: What about the “insulin-inducible 3H-thymidine incorporation” value ([2]; 0.4 μM oligonucleotide (vs 0.8 μM), insulin 500 nM) of the same molecule?
Answer: The value was “less effectively”.

Question: What about the “DNA synthesis inducible by insulin” value ([2]; 0.8 μM oligonucleotide, insulin 500 nM and 1000 nM) of the same molecule?
Answer: Its value is “significantly inhibited”.

Question: And the “basal endothelial DNA synthesis” value ([2]; 0.8 μM oligonucleotide)?
Answer: The value was “inhibited”.

Question: And the “endothelial regrowth stimulated by insulin after injury” value [3]?
Answer: Its value is “significantly inhibited”.

Question: And the “inhibition of SMC proliferation stimulated by serum” value ([4]; 0.1 μM, 5% FBS, 3 days)?
Answer: The value was “failed to inhibit proliferation”.

Question: And the SMC growth ([4]; 1 μM)?
Answer: The SMC growth was “able to inhibit SMC growth”.

Question: For `COc1cccc(-c2cc(=O)c3ccccc3o2)c1N` [PD98059, reference compound], which “insulin-inducible DNA synthesis” value [2] is on record?
Answer: The value was “inhibited insulin-inducible DNA synthesis in a dose-dependent manner”.

Question: Which “insulin-inducible DNA synthesis” value [2] does the source give for `Oc1ccc(-c2nc(-c3ccncc3)c(-c3ccc(F)cc3)[nH]2)cc1` [SB202190, reference compound] here?
Answer: The value was “failed to affect DNA synthesis”.

Question: Which “Egr-1 binding activity (CAT reporter activity)” value [5] does the source give for fibroblast growth factor-2 [FGF-2] here?
Answer: Its value is “increased”.

Question: And the “Egr-1 mRNA levels” value [6]?
Answer: The value was “elevated steady-state Egr-1 mRNA levels”.

Question: With `CCCCCCCCCCCCCC(=O)O[C@@H]1[C@@H](C)[C@@]2(O)[C@@H](C=C(CO)C[C@]3(O)C(=O)C(C)=C[C@@H]23)[C@@H]2C(C)(C)[C@]12OC(C)=O` [PMA, Phorbol-12-myristrate 13-acetate, reference compound] as the molecule, how does the “Egr-1 mRNA levels” value [6] read?
Answer: The value was “elevated steady-state Egr-1 mRNA levels”.

Question: Which “insulin-inducible Egr-1 protein synthesis” value [1] does the source give for “AS2C: size-matched phosphorothioate-linked counterpart of AS2 with similar base composition, 5′-GsCsAsCsTsTsCsTsGsCsTsGsTsCsC-3′ (DNA dG*dC*dA*dC*dT*dT*dC*dT*dG*dC*dT*dG*dT*dC*dC) [reference compound]” here?
Answer: Its value is “lack of attenuation”.

Question: And the “basal endothelial DNA synthesis” value ([2]; 0.8 μM oligonucleotide)?
Answer: Its value is “little effect”.

Question: And the “endothelial regrowth stimulated by insulin after injury” value [3]?
Answer: The value was “not significantly different”.

Question: What does the source list for insulin?
Answer: Egr-1 binding activity (CAT reporter activity) [5]: did increase; Egr-1 mRNA levels [6]: elevated steady-state Egr-1 mRNA levels; Egr-1 protein synthesis ([1]; insulin 100 nM and 500 nM, within 1 h): induced Egr-1 protein synthesis; increase in DNA synthesis ([2]; insulin 100 nM): 100%; increase in DNA synthesis ([2]; insulin 500 nM): 200%; population of cells in the denuded zone after injury ([3]; insulin 500 nM at time of injury, 3 days): significantly increased

Question: “EDC: DNAzyme with identical catalytic domain flanked by nonsense arms, 5′-CGCCATTAGGCTAGCTACAACGACCTAGTGAT-3′; 3′T inverted (DNA CGCCATTAGGCTAGCTACAACGACCTAGTGA; DNA, [invdT] at 3' end, backbone not given here)” was tested. Which “serum-induction of NGFI-A protein” value [7] did it give?
Answer: Its value is “neither ED5SCR nor EDC, a DNAzyme bearing an identical catalytic domain as ED5 and ED5SCR but flanked by nonsense arms had any influence”.

Question: How did the “Egr-1 binding activity (CAT reporter activity)” value [5] turn out when `O=C[C@H](O)[C@@H](O)[C@H](O)[C@H](O)CO` [glucose] was run?
Answer: The value was “did not increase”.

Question: “SEQ ID NO:24: size matched DNAzyme with different sequence, 5′-tcagctgcaGGCTAGCTACAACGActcggcctt (DNA TCAGCTGCAGGCTAGCTACAACGACTCGGCCT; DNA, [invdT] at 3' end, backbone not given here) [reference compound]” was tested. Which “EGR-1 expression in HepG2 cells” value [8] did it give?
Answer: Its value is “no effect”.
